Legend:
[1] = tested on: U87EGFRvIII human glioblastoma cells; conditions: cited from earlier work
[2] = parameters: species or system human; conditions: in vivo
From the text: The opening of a new cohort followed a standard 3 + 3 dose-escalation design and was guided by assessment of all grade toxicities and trends in adverse events seen in subsequent dosing cycles. […] Safety and clinical data were reviewed through day 28 prior to the opening of each cohort level. DLT was defined as any possible drug-related, clinically relevant, grade 3 or 4 non-hematologic toxicity (except alopecia or unmedicated nausea/vomiting), grade 3 nausea, vomiting, or diarrhea of any duration lasting > 24 hours despite standard prophylaxis and/or treatment, grade 4 diarrhea and vomiting of any duration, grade 3 febrile neutropenia (defined as ANC […] with a single temperature of > 38.3° C or a sustained temperature of ≥ 38.3° C for more than 1 hour), grade 4 febrile neutropenia of any duration, grade 4 neutropenia lasting > 7 days (defined as a neutrophil count of < 500/mm^3), grade 4 thrombocytopenia or thrombocytopenia with clinically significant bleeding, grade 4 anemia of any duration, and any clinically significant toxicity that precluded administration of the next scheduled dose beyond 14 days, or dose reduction for any reason. The maximum tolerated dose (MTD) was defined as the highest dose tested in which fewer than 33% of patients experienced a DLT. Review of study data led to expansion of dose cohort 3 while dose cohort 4 was evaluated. Dose cohort 4 was also expanded in the absence of DLTs. The recommended phase II dose was defined as a dose equal to or below the MTD and accounted for any cumulative or delayed toxicity beyond the DLT observation period.
Safety evaluations of hematology and chemistry were conducted weekly on days 1, 8, and 15 in cycles 1 and 2 and every 2 weeks thereafter. Physical examination, vital signs collection, performance status assessment, neurological exam, and coagulation level occurred at the start of every cycle. An ECG and chest X-ray were performed at baseline prior to starting treatment. Toxicities were assessed using NCI CTCAE version 4.03.

## CN(C)C/C=C/C(=O)Nc1cc2c(Nc3ccc(F)c(Cl)c3)ncnc2cc1O[C@H]1CCOC1 [Afatinib]
[1]
  Inhibitory concentration of 25% (IC25): ~1000 nM
[2]; human
  Acute kidney injury: % of patients with treatment-related AE: 4.2%
  Acute kidney injury: No. of patients with treatment-related AE: 1
  Amnesia: % of patients with treatment-related AE: 4.2%
  Amnesia: No. of patients with treatment-related AE: 1
  Anorexia: % of patients with treatment-related AE: 25%
  Anorexia: No. of patients with treatment-related AE: 6
  Bilateral blepharitis: % of patients with treatment-related AE: 4.2%
  Bilateral blepharitis: No. of patients with treatment-related AE: 1
  Bilateral intermittent leg cramps: % of patients with treatment-related AE: 4.2%
  Bilateral intermittent leg cramps: No. of patients with treatment-related AE: 1
  Blurred vision: % of patients with treatment-related AE: 4.2%
  Blurred vision: No. of patients with treatment-related AE: 1
  Candida Intertrigo: % of patients with treatment-related AE: 4.2%
  Candida Intertrigo: No. of patients with treatment-related AE: 1
  Confusion: % of patients with treatment-related AE: 8.3%
  Confusion: No. of patients with treatment-related AE: 2
  Constipation: % of patients with treatment-related AE: 12.5%
  Constipation: No. of patients with treatment-related AE: 3
  DVT: % of patients with treatment-related AE: 4.2%
  DVT: No. of patients with treatment-related AE: 1
  Diarrhea: % of patients with treatment-related AE: 75%
  Diarrhea: No. of patients with treatment-related AE: 18
  Dysgeusia: % of patients with treatment-related AE: 4.2%
  Dysgeusia: No. of patients with treatment-related AE: 1
  Dyspepsia: % of patients with treatment-related AE: 4.2%
  Dyspepsia: No. of patients with treatment-related AE: 1
  Dyspnea: % of patients with treatment-related AE: 4.2%
  Dyspnea: No. of patients with treatment-related AE: 1
  Edema limbs: % of patients with treatment-related AE: 16.7%
  Edema limbs: No. of patients with treatment-related AE: 4
  Fatigue: % of patients with treatment-related AE: 25%
  Fatigue: No. of patients with treatment-related AE: 6
  Fever: % of patients with treatment-related AE: 8.3%
  Fever: No. of patients with treatment-related AE: 2
  GERD: % of patients with treatment-related AE: 4.2%
  GERD: No. of patients with treatment-related AE: 1
  Gait disturbance: % of patients with treatment-related AE: 4.2%
  Gait disturbance: No. of patients with treatment-related AE: 1
  Gastroenteritis: % of patients with treatment-related AE: 4.2%
  Gastroenteritis: No. of patients with treatment-related AE: 1
  Headache: % of patients with treatment-related AE: 4.2%
  Headache: No. of patients with treatment-related AE: 1
  Hypokalemia: % of patients with treatment-related AE: 4.2%
  Hypokalemia: No. of patients with treatment-related AE: 1
  Ingrown nail: % of patients with treatment-related AE: 4.2%
  Ingrown nail: No. of patients with treatment-related AE: 1
  Insomnia: % of patients with treatment-related AE: 4.2%
  Insomnia: No. of patients with treatment-related AE: 1
  Memory impairment: % of patients with treatment-related AE: 4.2%
  Memory impairment: No. of patients with treatment-related AE: 1
  Metabolic acidosis: % of patients with treatment-related AE: 4.2%
  Metabolic acidosis: No. of patients with treatment-related AE: 1
  Metabolic encephalopathy: % of patients with treatment-related AE: 4.2%
  Metabolic encephalopathy: No. of patients with treatment-related AE: 1
  Nausea: % of patients with treatment-related AE: 37.5%
  Nausea: No. of patients with treatment-related AE: 9
  Palmar-Plantar Erythrodysesthesia: % of patients with treatment-related AE: 4.2%
  Palmar-Plantar Erythrodysesthesia: No. of patients with treatment-related AE: 1
  Paresthesia (lower extremities): % of patients with treatment-related AE: 4.2%
  Paresthesia (lower extremities): No. of patients with treatment-related AE: 1
  Pruritus: % of patients with treatment-related AE: 16.7%
  Pruritus: No. of patients with treatment-related AE: 4
  Rash acneiform: % of patients with treatment-related AE: 37.5%
  Rash acneiform: No. of patients with treatment-related AE: 9
  Rash maculo-papular: % of patients with treatment-related AE: 20.8%
  Rash maculo-papular: No. of patients with treatment-related AE: 6
  Rash: % of patients with treatment-related AE: 25%
  Rash: No. of patients with treatment-related AE: 6
  Skin atrophy: % of patients with treatment-related AE: 4.2%
  Skin atrophy: No. of patients with treatment-related AE: 1
  Skin ulceration: % of patients with treatment-related AE: 4.2%
  Skin ulceration: No. of patients with treatment-related AE: 1
  Thrombocytopenia: % of patients with treatment-related AE: 4.2%
  Thrombocytopenia: No. of patients with treatment-related AE: 1
  Vomiting: % of patients with treatment-related AE: 37.5%
  Vomiting: No. of patients with treatment-related AE: 9
[2]; human, po
  Mucositis oral: % of patients with treatment-related AE: 20.8%
  Mucositis oral: No. of patients with treatment-related AE: 5
  Recommended phase II dose: 280 mg
  Thrush (oral): % of patients with treatment-related AE: 4.2%
  Thrush (oral): No. of patients with treatment-related AE: 1
[2]
  Dose-limiting toxicities: no dose-limiting toxicities
